Literature values as cited in US20110195110A1, “UREA COMPOUNDS USEFUL IN THE TREATMENT OF CANCER” (priority 2005, published 2011).

Tests used:
Bcr-Abl E255K mutant = settings: biochemical assay
[1] = tested on: Imatinib-resistant mutations of Bcr-Abl
Bcr-Abl kinase = settings: greater potency than Imatinib
early phase CML = settings: patients with early phase CML

| Compound | inhibition of the E255K mutant (Bcr-Abl E255K mutant) | inhibition of Imatinib-resistant mutations [1] | potency of inhibition of Bcr-Abl kinase activity relative to Imatinib (Bcr-Abl kinase) [fold] | response at haematological and cytogenetic levels (early phase CML) |
| --- | --- | --- | --- | --- |
| Cc1cn(-c2cc(NC(=O)c3ccc(C)c(Nc4nccc(-c5cccnc5)n4)c3)cc(C(F)(F)F)c2)cn1 [AMN-107] | somewhat weak inhibition | inhibit most Imatinib-resistant mutations, except for T3151 | 20 |  |
| Cc1ccc(NC(=O)c2ccc(CN3CCN(C)CC3)cc2)cc1Nc1nccc(-c2cccnc2)n1 [Imatinib] |  |  |  | greater than 90% |
